“And” between values parts separate entries of the source, which are not always exact repeats. Equal entries are not always repeated. Toxic doses and inconclusive results are not listed. The calls were made as follows: active = survival T/C of 150% or more; inactive = T/C below 125% in these data.
System: P388 leukemia ip, CD2F1 mice, survival T/C
Assay: NCI In Vivo Anticancer Drug Screen. Data for tumor model P388 Leukemia (intraperitoneal) in CD2F1 (CDF1) mice
Conditions: endpoint: median survival time, higher = longer survival
Method in brief: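 Mice carrying the transplanted tumor received test compound or vehicle. Survival was recorded in each group, and the value is the treated-group measurement divided by that of the vehicle-treated control group.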

[1] = dose: 60.0 mg/kg/injection, schedule: Q01DX005 (ip), vehicle: saline with Tween-80
[2] = dose: 120.0 mg/kg/injection, schedule: Q01DX005 (ip), vehicle: saline with Tween-80
[3] = dose: 240.0 mg/kg/injection, schedule: Q01DX005 (ip), vehicle: saline with Tween-80
[4] = dose: 50.0 mg/kg/injection, schedule: Q01DX005 (ip), vehicle: Klucel (hydroxypropylcellulose) (HPC)
[5] = dose: 100.0 mg/kg/injection, schedule: Q01DX005 (ip), vehicle: Klucel (hydroxypropylcellulose) (HPC)
[6] = dose: 200.0 mg/kg/injection, schedule: Q01DX005 (ip), vehicle: Klucel (hydroxypropylcellulose) (HPC)
[7] = dose: 50.0 mg/kg/injection, schedule: Q01DX005 (ip), vehicle: saline with Tween-80
[8] = dose: 100.0 mg/kg/injection, schedule: Q01DX005 (ip), vehicle: saline with Tween-80
[9] = dose: 200.0 mg/kg/injection, schedule: Q01DX005 (ip), vehicle: saline with Tween-80
[10] = dose: 100.0 mg/kg/injection, schedule: Q01DX009 (ip), vehicle: Klucel (hydroxypropylcellulose) (HPC)
[11] = dose: 50.0 mg/kg/injection, schedule: Q01DX009 (ip), vehicle: saline with Tween-80
[12] = dose: 100.0 mg/kg/injection, schedule: Q01DX009 (ip), vehicle: saline with Tween-80
[13] = dose: 200.0 mg/kg/injection, schedule: Q01DX009 (ip), vehicle: saline with Tween-80
[14] = dose: 12.5 mg/kg/injection, schedule: Q01DX009 (ip), vehicle: saline with Tween-80
[15] = dose: 25.0 mg/kg/injection, schedule: Q01DX009 (ip), vehicle: saline with Tween-80
[16] = dose: 50.0 mg/kg/injection, schedule: Q01DX009 (ip), vehicle: Klucel (hydroxypropylcellulose) (HPC)
[17] = dose: 200.0 mg/kg/injection, schedule: Q01DX009 (ip), vehicle: Klucel (hydroxypropylcellulose) (HPC)

Measured: T/C

Cc1noc2nc(-c3ccccc3)cc(N3CCN(C)CC3)c12
inactive: dose: 12.5 mg/kg/injection, schedule: Q01DX005 (ip), vehicle: other 107 % of control | dose: 25.0 mg/kg/injection, schedule: Q01DX005 (ip), vehicle: other 97 % of control | dose: 50.0 mg/kg/injection, schedule: Q01DX005 (ip), vehicle: other 97 % of control | dose: 100.0 mg/kg/injection, schedule: Q01DX005 (ip), vehicle: other 101 % of control | dose: 200.0 mg/kg/injection, schedule: Q01DX005 (ip), vehicle: other 104 % of control

COC(=O)c1ncn(C(C(=O)OC)C(=O)OC)c1O
inactive: [1] 104 % of control | [2] 100 % of control | [3] 113 % of control

COc1cccc2c1C(=O)c1c(O)c3c(c(O)c1C2=O)CC(O)(C(=O)CO)CC3OC1CC2C(OC3COCC(C#N)N32)C(C)O1 (stereo not given)
inactive: dose: 0.5 mg/kg/injection, schedule: Q04DX003 (ip), vehicle: saline with Tween-80 102 % of control and 120 % of control | dose: 1.0 mg/kg/injection, schedule: Q04DX003 (ip), vehicle: saline with Tween-80 116 % of control | dose: 4.0 mg/kg/injection, schedule: Q04DX003 (ip), vehicle: saline with Tween-80 113 % of control

CC1=C(C)C(C#N)N(C)CC1 (stereo not given)
inactive: dose: 3.75 mg/kg/injection, schedule: Q01DX005 (ip), vehicle: Klucel (hydroxypropylcellulose) (HPC) 102 % of control | dose: 7.5 mg/kg/injection, schedule: Q01DX005 (ip), vehicle: Klucel (hydroxypropylcellulose) (HPC) 100 % of control

CN1C(=O)/C(=C2\SC(=O)N(CN3CCOCC3)C2=O)c2ccccc21
inactive: [4] 106 % of control | [5] 99 % of control | [6] 104 % of control

CC(C)CC(=N)CC(C)C
inactive: [7] 100 % of control | [8] 100 % of control | [9] 96 % of control

CC(=O)/C(=N/O)C(C)=NCc1ccccc1
inactive: [10] 88 % of control

O=S(=O)(F)/C=C/c1ccccc1
inactive: [11] 109 % of control | [12] 109 % of control

O=c1c2ccccc2ncn1CC1(O)CC2NCCCC2O1 (stereo not given)
inactive: dose: 2.0 mg/kg/injection, schedule: Q01DX009 (ip), vehicle: distilled water + Tween-80 115 % of control | dose: 4.0 mg/kg/injection, schedule: Q01DX009 (ip), vehicle: distilled water + Tween-80 117 % of control | dose: 5.0 mg/kg/injection, schedule: Q01DX009 (ip), vehicle: Klucel (hydroxypropylcellulose) (HPC) 116 % of control | dose: 8.0 mg/kg/injection, schedule: Q01DX009 (ip), vehicle: distilled water + Tween-80 102 % of control | dose: 10.0 mg/kg/injection, schedule: Q01DX009 (ip), vehicle: Klucel (hydroxypropylcellulose) (HPC) 107 % of control | dose: 16.0 mg/kg/injection, schedule: Q01DX009 (ip), vehicle: distilled water + Tween-80 117 % of control | dose: 20.0 mg/kg/injection, schedule: Q01DX009 (ip), vehicle: Klucel (hydroxypropylcellulose) (HPC) 98 % of control

N#Cc1c2c(c(=O)n3c1[nH]c1ccccc13)CCC2
inactive: [1] 100 % of control | [2] 93 % of control | [3] 94 % of control

CCOC(=O)/C(C#N)=C/NCCc1c[nH]c2ccccc12
inactive: [4] 102 % of control | [5] 103 % of control | [6] 94 % of control

CCC(C)CCC(=O)O (stereo not given)
inactive: [11] 98 % of control | [12] 97 % of control | [13] 99 % of control

NC(=O)CCC(N)C(=O)O (stereo not given)
inactive: [14] 105 % of control | [15] 119 % of control | [11] 112 % of control | dose: 50.0 mg/kg/injection, schedule: Q01DX009 (ip), vehicle: saline 113 % of control | dose: 100.0 mg/kg/injection, schedule: Q01DX009 (ip), vehicle: saline 101 % of control and 116 % of control | dose: 200.0 mg/kg/injection, schedule: Q01DX009 (ip), vehicle: saline 90 % of control and 109 % of control | dose: 400.0 mg/kg/injection, schedule: Q01DX009 (ip), vehicle: saline 109 % of control

CN(C)c1ccc(C(=NNC(N)=S)c2ccc(N(C)C)cc2)cc1
inactive: dose: 12.5 mg/kg/injection, schedule: Q04DX003 (ip), vehicle: Klucel (hydroxypropylcellulose) (HPC) 96 % of control | dose: 25.0 mg/kg/injection, schedule: Q04DX003 (ip), vehicle: Klucel (hydroxypropylcellulose) (HPC) 105 % of control | dose: 50.0 mg/kg/injection, schedule: Q04DX003 (ip), vehicle: Klucel (hydroxypropylcellulose) (HPC) 99 % of control and 108 % of control

C(/C=C/c1ccccc1)=C1SCCCS1
inactive: dose: 100.0 mg/kg/injection, schedule: Q04DX003 (ip), vehicle: saline with Tween-80 94 % of control | dose: 200.0 mg/kg/injection, schedule: Q04DX003 (ip), vehicle: saline with Tween-80 103 % of control | dose: 400.0 mg/kg/injection, schedule: Q04DX003 (ip), vehicle: saline with Tween-80 90 % of control

Cc1ccc2nc(NC(=S)NCCCCNC(=S)Nc3ccc4cc(C)ccc4n3)ccc2c1
inactive: [16] 98 % of control | [10] 94 % of control | [17] 89 % of control

OC(CC1CCCCN1)c1cc2c(Cl)cc(Cl)cc2c2cc(C(F)(F)F)ccc12 (stereo not given)
inactive: [14] 95 % of control | [15] 104 % of control | [11] 101 % of control

CCOC(=O)Cc1ccc(-c2csc(Nc3ccc(F)cc3)n2)cc1
inactive: [16] 103 % of control | [10] 100 % of control | [17] 105 % of control

Cc1ccc(/C(CBr)=N/N=C(/CBr)c2ccc(C)cc2)cc1
inactive: [16] 100 % of control | [10] 92 % of control | [17] 98 % of control

CC(C)(C)c1cc(/C=N/NC(=O)CC2CCCCC2)cc(C(C)(C)C)c1O
inactive: [1] 96 % of control | [2] 100 % of control | [3] 87 % of control

COc1cc(C(=O)NC2CC2)cc(OC)c1OC
inactive: [15] 101 % of control | [11] 104 % of control | [12] 107 % of control | [13] 110 % of control

COc1cc(C(NC(=O)N2C(=O)C=CC2=O)NC(=O)N2C(=O)C=CC2=O)ccc1O
inactive: [7] 106 % of control | [8] 100 % of control | [9] 100 % of control

Cc1cc(NCc2ccccc2)c(C)c2c1C=NCC2
inactive: dose: 12.5 mg/kg/injection, schedule: Q01DX009 (ip), vehicle: distilled water + Tween-80 97 % of control | dose: 25.0 mg/kg/injection, schedule: Q01DX009 (ip), vehicle: distilled water + Tween-80 97 % of control | dose: 50.0 mg/kg/injection, schedule: Q01DX009 (ip), vehicle: distilled water + Tween-80 106 % of control | dose: 100.0 mg/kg/injection, schedule: Q01DX009 (ip), vehicle: distilled water + Tween-80 92 % of control | dose: 200.0 mg/kg/injection, schedule: Q01DX009 (ip), vehicle: distilled water + Tween-80 87 % of control

CC(C)(c1ccccc1)[N+](C)(C)C
inactive: dose: 5.0 mg/kg/injection, schedule: Q01DX009 (ip), vehicle: saline with Tween-80 100 % of control | dose: 10.0 mg/kg/injection, schedule: Q01DX009 (ip), vehicle: saline with Tween-80 104 % of control | dose: 10.0 mg/kg/injection, schedule: Q04DX003 (ip), vehicle: saline 90 % of control | dose: 20.0 mg/kg/injection, schedule: Q01DX009 (ip), vehicle: saline with Tween-80 109 % of control | dose: 20.0 mg/kg/injection, schedule: Q04DX003 (ip), vehicle: saline 95 % of control

CN=C(N)N/N=C(/C)c1cc2ccccc2c2ccccc12
inactive: dose: 25.0 mg/kg/injection, schedule: Q04DX002 (ip), vehicle: saline with Tween-80 95 % of control | dose: 50.0 mg/kg/injection, schedule: Q04DX002 (ip), vehicle: saline with Tween-80 101 % of control | dose: 100.0 mg/kg/injection, schedule: Q04DX002 (ip), vehicle: saline with Tween-80 102 % of control

O=C(O)CSC(=O)NCCCCCCNC(=O)Nc1ccccc1
inactive: [7] 104 % of control | [8] 105 % of control | [9] 112 % of control

O=C(Nc1ccccc1)/C(N=Nc1ccc([N+](=O)[O-])cc1Cl)=N/Nc1ccccc1S(=O)(=O)O
inactive: [4] 102 % of control | [5] 101 % of control | [6] 91 % of control

Cc1ccc(S(=O)(=O)N(Cc2ccccc2)S(=O)(=O)c2ccc(C)cc2)cc1
inactive: [15] 110 % of control | [11] 118 % of control | [12] 101 % of control
